Earlier results in US11702451B2, “Method for synthesizing amanitins” (Heidelberg Pharma Research GmbH, priority 2017, dated 2023).

Target: DNA-dependent RNA polymerase II (Homo sapiens, UniProt P24928)
Conditions: background statement, no method given; read-out: KD of the complex between amanitin and RNA-polymerase II

For amanitin, the Kd is given as 3 nM.
